Patent US12544395B2, “Combination compositions comprising a beta-lactamase inhibitor and uses thereof” (priority 2018, dated 2026)
Values after ≈ are worked out from the molar mass of the structure shown. Read-outs that look alike come from different tables or passages of the source.

Assays:
Format in all cases: cell-based
E. coli SI-NO36 = test: Broth microdilution MIC (strain enzymes: SHV-11, TEM-1); settings: Escherichia coli, SINO36; alone; read-out: MIC of cefdinir (CDR)
E. coli 3174 = test: Broth microdilution MIC (strain enzymes: TEM-1, CTXM-15); settings: Escherichia coli, 3174; alone; read-out: MIC of cefdinir (CDR)
E. coli SI-AIRT-4 = test: Broth microdilution MIC (strain enzymes: TEM-1); settings: Escherichia coli, SIAIRT4; alone; read-out: MIC of cefdinir (CDR)
K. pneumoniae BAA 1705 = test: Broth microdilution MIC (strain KPC-producing); settings: Klebsiella pneumoniae, BAA1705; alone; read-out: MIC of cefdinir (CDR)
K. pneumoniae 170375 = test: Broth microdilution MIC (strain enzymes: SHV-12, CTX-M15 and TEM-1); settings: Klebsiella pneumoniae, 170375; alone; read-out: MIC of cefdinir (CDR)
E. coli 1924 = test: Broth microdilution MIC (strain enzymes: TEM-12); settings: Escherichia coli, 1924; alone; read-out: MIC of cefdinir (CDR)
K. pneumoniae SI-KP NO30 = test: Broth microdilution MIC (strain enzymes: TEM-26b, SHV-60, SHV-26); settings: Klebsiella pneumoniae, SIKPNO30; alone; read-out: MIC of cefdinir (CDR)
K. pneumoniae ESBL 8 #1 = test: Broth microdilution MIC (strain enzymes: TEM-1, SHV-12); settings: Klebsiella pneumoniae; alone; read-out: MIC of cefdinir (CDR)
K. pneumoniae 115468 = test: Broth microdilution MIC (strain enzymes: TEM-1); settings: Klebsiella pneumoniae, 115468; alone; read-out: MIC of cefdinir (CDR)
E. coli 2806 = test: Broth microdilution MIC (strain enzymes: SHV-12, TEM-1); settings: Escherichia coli, 2806; alone; read-out: MIC of cefdinir (CDR)
K. oxytoca 496 #2 = test: Broth microdilution MIC (strain enzymes: SHV-105, TEM-1); settings: Klebsiella oxytoca; alone; read-out: MIC of cefdinir (CDR)
E. coli ESBL 4 = test: Broth microdilution MIC (strain enzymes: CTX-M15, TEM-1); settings: Escherichia coli, ESBL4; alone; read-out: MIC of cefdinir (CDR)
K. pneumoniae KI (KCl) = test: Broth microdilution MIC (strain enzymes: TEM-10); settings: Klebsiella pneumoniae; alone; read-out: MIC of cefdinir (CDR)
E. coli 25922 = test: Broth microdilution MIC (strain enzymes: None detected); settings: Escherichia coli, 25922; alone; read-out: MIC of cefdinir (CDR)
E. coli ESBL 2 = test: Broth microdilution MIC (strain enzymes: TEM-1); settings: Escherichia coli, ESBL2; alone; read-out: MIC of cefdinir (CDR)
K. pneumoniae 153239 = test: Broth microdilution MIC (strain enzymes: SHV-11, TEM-1); settings: Klebsiella pneumoniae, 153239; alone; read-out: MIC of cefdinir (CDR)
[1] = test system: panel of ESBL-producing Enterobacteriaceae (40 strains); test: Broth microdilution MIC50/MIC90 summary over the panel
E. coli 3327 = test: Broth microdilution MIC (strain enzymes: TEM-1, SHV-12); settings: Escherichia coli, 3327; alone; read-out: MIC of cefdinir (CDR)
K. pneumoniae 304487 = test: Broth microdilution MIC (strain enzymes: SHV-12,TEM-1); settings: Klebsiella pneumoniae, 304487; alone; read-out: MIC of cefdinir (CDR)
K. pneumoniae ESBL 10 = test: Broth microdilution MIC (strain enzymes: SHV-12, TEM-1); settings: Klebsiella pneumoniae, ESBL10; alone; read-out: MIC of cefdinir (CDR)
E. coli Si-FDL-GES = test: microbe, parasite or virus in culture; settings: Escherichia coli, read-out: MIC of cefdinir (CDR)
K. pneumoniae KP 3 = test: Broth microdilution MIC (strain enzymes: SHV-1, TEM-1); settings: Klebsiella pneumoniae, KP3; alone; read-out: MIC of cefdinir (CDR)
E. coli 2150 = test: Broth microdilution MIC (strain enzymes: SHV-3, TEM-1); settings: Escherichia coli, 2150; alone; read-out: MIC of cefdinir (CDR)
K. pneumoniae KP 4 = test: Broth microdilution MIC (strain enzymes: SHV-2a, SHV-5, TEM-1); settings: Klebsiella pneumoniae, KP4; alone; read-out: MIC of cefdinir (CDR)
K. pneumoniae 329633 = test: Broth microdilution MIC (strain enzymes: SHV-5, TEM-1); settings: Klebsiella pneumoniae, 329633; alone; read-out: MIC of cefdinir (CDR)
K. pneumoniae ESBL 7 #1 = test: Broth microdilution MIC (strain enzymes: SHV-12, TEM-1); settings: Klebsiella pneumoniae; alone; read-out: MIC of cefdinir (CDR)
K. oxytoca 169219 = test: Broth microdilution MIC (strain enzymes: TEM-1, CTXM-15); settings: Klebsiella oxytoca, 169219; alone; read-out: MIC of cefdinir (CDR)
K. oxytoca 176877 = test: Broth microdilution MIC (strain enzymes: SHV-105); settings: Klebsiella oxytoca, 176877; alone; read-out: MIC of cefdinir (CDR)
E. coli ESBL 5 = test: Broth microdilution MIC (strain enzymes: CTX-M15, TEM-1); settings: Escherichia coli, ESBL5; alone; read-out: MIC of cefdinir (CDR)
K. pneumoniae 3151 = test: Broth microdilution MIC (strain enzymes: SHV-12, TEM-1); settings: Klebsiella pneumoniae, 3151; alone; read-out: MIC of cefdinir (CDR)
E. coli SI-LP377 = test: microbe, parasite or virus in culture; settings: Escherichia coli, SILP377, read-out: MIC of cefdinir (CDR)
K. pneumoniae ESBL 8 #2 = test: Broth microdilution MIC (strain enzymes: SHV-12, TEM-1); settings: Klebsiella pneumoniae; alone; read-out: MIC of cefdinir (CDR)
E. coli SI-M004 = test: Broth microdilution MIC (strain enzymes: SHV-2, GES-12); settings: Escherichia coli, SIM004; alone; read-out: MIC of cefdinir (CDR)
E. coli BAS 1 = test: Broth microdilution MIC (strain enzymes: none detected); settings: Escherichia coli, BAS1; alone; read-out: MIC of cefdinir (CDR)
K. pneumoniae 319478 = test: Broth microdilution MIC (strain enzymes: SHV-12, CTX-M3 and TEM-1); settings: Klebsiella pneumoniae, 319478; alone; read-out: MIC of cefdinir (CDR)
E. coli SI-PBLII = test: Broth microdilution MIC (strain enzymes: CTX-M2, TEM-1); settings: Escherichia coli; alone; read-out: MIC of cefdinir (CDR)
K. pneumoniae KPN 508 = test: Broth microdilution MIC (strain enzymes: SHV-7, TEM-1); settings: Klebsiella pneumoniae, KPN508; alone; read-out: MIC of cefdinir (CDR)
E. coli SI-V502 = test: Broth microdilution MIC (strain enzymes: TEM-29, CTX-M15); settings: Escherichia coli, SIV502; alone; read-out: MIC of cefdinir (CDR)
K. pneumoniae 11/23 LF#2 = test: microbe, parasite or virus in culture; settings: Klebsiella pneumoniae, read-out: MIC of cefdinir (CDR)
K. pneumoniae ESBL 7 #2 = test: Broth microdilution MIC (strain enzymes: SHV-12, CTX-M15, TEM-1); settings: Klebsiella pneumoniae; alone; read-out: MIC of cefdinir (CDR)
K. pneumoniae KP 8 = test: Broth microdilution MIC (strain enzymes: TEM-10, TEM-1, CTX-M15); settings: Klebsiella pneumoniae, KP8; alone; read-out: MIC of cefdinir (CDR)

C=CC1=C(C(=O)O)N2C(=O)[C@@H](NC(=O)/C(=N\O)c3csc(N)n3)[C@H]2SC1 [Cefdinir, cefdinir, reference compound]
MIC (E. coli SI-NO36): 4 µg/mL
MIC (E. coli 3174): 1 µg/mL
MIC (E. coli SI-AIRT-4): 0.25 µg/mL
MIC (K. pneumoniae BAA 1705): > 32 µg/mL
MIC (K. pneumoniae 170375): > 32 µg/mL
MIC (E. coli 1924): 2 µg/mL
MIC (K. pneumoniae SI-KP NO30): 0.5 µg/mL
MIC (K. pneumoniae ESBL 8 #1): 16 µg/mL
MIC (K. pneumoniae 115468): 8 µg/mL
MIC (E. coli 2806): 4 µg/mL
MIC (K. oxytoca 496 #2): 16 µg/mL
MIC (E. coli ESBL 4): > 32 µg/mL
MIC (K. pneumoniae KI (KCl)): 1 µg/mL
MIC (E. coli 25922): 0.5 µg/mL
MIC (E. coli ESBL 2): > 32 µg/mL
MIC (K. pneumoniae 153239): 2 µg/mL
MIC50 ([1]; read-out: Cefdinir MIC50): 16 µg/mL (≈ 40.5 µM)
MIC90 ([1]; read-out: Cefdinir MIC90): > 32 µg/mL
MIC (E. coli 3327): 16 µg/mL
MIC (K. pneumoniae 304487): 8 µg/mL
MIC (K. pneumoniae ESBL 10): 16 µg/mL
MIC (E. coli Si-FDL-GES): > 32 µg/mL
MIC (K. pneumoniae KP 3): 4 µg/mL
MIC (E. coli 2150): > 32 µg/mL
MIC (K. pneumoniae KP 4): 8 µg/mL
MIC (K. pneumoniae 329633): 16 µg/mL
MIC (K. pneumoniae ESBL 7 #1): 32 µg/mL
MIC (K. oxytoca 169219): > 32 µg/mL
MIC (K. oxytoca 176877): 8 µg/mL
MIC (E. coli ESBL 5): > 32 µg/mL
MIC (K. pneumoniae 3151): > 32 µg/mL
MIC (E. coli SI-LP377): > 32 µg/mL
MIC (K. pneumoniae ESBL 8 #2): 16 µg/mL
MIC (E. coli SI-M004): 32 µg/mL
MIC (E. coli BAS 1): > 32 µg/mL
MIC (K. pneumoniae 319478): > 32 µg/mL
MIC (E. coli SI-PBLII): 2 µg/mL
MIC (K. pneumoniae KPN 508): 32 µg/mL
MIC (E. coli SI-V502): 2 µg/mL
MIC (K. pneumoniae 11/23 LF#2): 2 µg/mL
MIC (K. pneumoniae ESBL 7 #2): > 32 µg/mL
MIC (K. pneumoniae KP 8): 0.5 µg/mL

COCC1=C(C(=O)O)N2C(=O)[C@@H](NC(=O)/C(=N\OC)c3csc(N)n3)[C@H]2SC1 [Cefpodoxime, cefpodoxime, reference compound]
MIC50 ([1]; read-out: Cefpodoxime MIC50): > 32 µg/mL
MIC90 ([1]; read-out: Cefpodoxime MIC90): > 32 µg/mL
